From patent publication US20210355166A1, “[…] METHODS OF USE THEREOF” (priority 2018, published 2021) come the findings set out here.

The target of test [1] is human κ-opioid receptor (hKOPr), human recombinant KOPr expressed in CHO cells (human) (UniProt P41145). Description: competition with [3H]U69593 (2 nM), human recombinant KOPr expressed in CHO cells.
The target of test [2] is human δ-opioid receptor (hDOPr), human recombinant DOPr expressed in CHO cells (human) (UniProt P41143). Description: competition with [3H]DADLE (0.5 nM), human recombinant DOPr expressed in CHO cells.
Test [3] has as its target T1, mouse MOPr (mMOPr) (Mus musculus, UniProt P42866).
T1 construct: expressed in transfected cells
It is filed as cell-based. The following applies: operational model fit.

The target in test [4] is T2, MOPr (Mus musculus, UniProt P42866). Description: Ser375 phosphorylation assay in AtT20 cells expressing MOPr. The note with it: met-enkephalin defined as 100%. It is filed as cell-based. More on the design: expressed in transfected cells. The procedure: Cells were serum starved for at least 30 min and then incubated in the absence or presence of the indicated ligand for 5-10 min at 37° C. Phosphorylation was terminated by fixing the cells with −30° C. methanol followed by 10 min incubation on ice. Cells were washed three times with phosphate buffered saline (PBS) and then heated in sodium citrate buffer (10 mM, 0.05% Tween 20, pH.6) for 20 min at 95° C. […] Imaging was performed as detailed below.
(§1) Imaging parameters including laser intensity, photomultiplier tube (PMT) voltage and offset remained constant for each experiment. Mean fluorescence intensity was measured using ImageJ software to calculate mean gray value of an area defined […] a single cell. Each experiment was normalized to the mean of untreated cells as 0% and the mean of cells treated with saturating concentrations of Met-enk (30 μM) as 100%.

The target in test [5] is T2, MOPr. Description: MOPr internalisation (endocytosis assay) in AtT20 cells. More on the design: expressed in transfected cells. The format is cell-based. The procedure:
as §1
MOPr internalisation was assessed immunocytochemically after 30 minutes of agonist treatment (FIGS. 8, 9). […] Endocytosis assay: Receptor internalization was quantified using a ratiometric staining of membrane and internalized receptors. […] Cells were then incubated for an additional 30 min with indicated agonist at 37° C. To unbind the M1 anti-FLAG antibody from the surface receptors, cells were quickly washed three times with ice-cold PBS lacking Mg^2+ and Ca^2+ and supplemented with 0.04% EDTA (pH 7.4).

Test [6] has as its target T2, MOPr. It is filed as cell-based. More on the design: expressed in transfected cells; host or cells: AtT20 cells, transient co-transfection. The procedure:
Arrestin recruitment: Agonist-induced recruitment of β-arrestin2 to MOPr was examined using a BRET-based approach. AtT20 cells were plated in 10-cm dishes and co-transfected with MOPr C-terminally tagged with Rluc8 (MOPr-RLuc8), β-arrestin2-YFP and GRK2 (1 μg, 4 μg and 2 μg, respectively). 24 h after transfection wells were replated into white opaque 96-well plates (CulturPlate, PerkinElmer) and allowed to adhere overnight. Cells were washed with Hank's Balanced Salt Solution (HBSS) and equilibrated in HBSS for 30 min at 37° C. prior to the experiment. Coelenterazine h was added to a final concentration of 5 μM 10 min before dual fluorescence/luminescence measurement in a LUMIstar Omega plate reader (BMG LabTech). Baseline BRET was measured for 30 sec prior to addition of the indicated ligand. The BRET signal was calculated as the ratio of light emitted at 530 nm by YFP over the light emitted at 430 nm by Renilla luciferase 8 (RLuc8).

Marks after values point to notes of the source that are not given here.

As usually defined, the Ki is the dissociation constant of the complex between target and ligand, obtained from inhibition or displacement. Turning to “bilorphin (H-[Dmt]-vVf-NH2; 2,6-dimethyl-L-tyrosine-D-Val-L-Val-D-Phe-NH2) (peptide)”, the Ki in test [1] turned out to be 770 nM; in test [2] it was 190 nM.

On to endomorphin-2, for which, in test [3], the “GIRK (80% knockdown) log(tau/KA)” value was 7.5 ± 0.04. In test [4], the “Phosphorylation Emax” value amounted to 98 ± 2%. In addition, in test [5], the “Internalisation Emax” value was 94 ± 3%, the “Internalisation log(tau/KA)” value is 6.2 ± 0.05 and the “MOPr internalisation” value was “robust internalisation”. Also, the “β-arrestin 2 recruitment Emax” value in test [6] (BRET) was 100 ± 3. For the same substance, in test [6] (operational model fit), the “β-arrestin 2 recruitment log(tau/KA)” value was 7.0 ± 0.06.

met-enkephalin: the “Phosphorylation Emax” value in test [4] is 100* %. Further, in test [5], the “Internalisation Emax” value is 100* % and the “MOPr internalisation” value is “robust internalisation”.
